Experimental data from patent publication US6677310B1, “Ring-expanded nucleosides and nucleotides” (Nabi, priority 1999, dated 2004).

Legend:
Assay type in all cases: cell-based, human
[1] = tested on: panel of cancer cell lines; test: In vitro anti-cancer assay, panel of cancer cell lines (sulforhodamine B); conditions: leukemia, non-small cell lung, colon, CNS, melanoma, ovarian, renal, prostate and breast cancer cell lines; read-out: GI50 values, range over the panel
K-562 = test: SRB anti-cancer assay, Leukemia; conditions: K-562 (Leukemia), 48 h
A549/ATCC = A549/ATCC (Non-Small Cell Lung Cancer), 48 h
NCI-H460 = NCI-H460 (Non-Small Cell Lung Cancer), 48 h
KM12 = test: SRB anti-cancer assay, Colon Cancer; conditions: 48 h
SF-268 = test: SRB anti-cancer assay, CNS Cancer; conditions: SF-268 (CNS Cancer), 48 h
M14 = test: SRB anti-cancer assay, Melanoma; conditions: 48 h
SK-MEL-2 = test: SRB anti-cancer assay, Melanoma; conditions: SK-MEL-2 (Melanoma), 48 h
UACC-62 = test: SRB anti-cancer assay, Melanoma; conditions: UACC-62 (Melanoma), 48 h
SK-OV-3 = test: SRB anti-cancer assay, Ovarian Cancer; conditions: SK-OV-3 (Ovarian Cancer), 48 h
PC-3 = test: SRB anti-cancer assay, Prostate Cancer; conditions: PC-3 (Prostate Cancer), 48 h
DU-145 = test: SRB anti-cancer assay, Prostate Cancer; conditions: DU-145 (Prostate Cancer), 48 h
NCI/ADR-RES = test: SRB anti-cancer assay, Breast Cancer; conditions: 48 h
MDA-MB- 231/ATCC = test: SRB anti-cancer assay, Breast Cancer; conditions: MDA-MB- 231/ATCC (Breast Cancer), 48 h
MDA-MB-435 = test: SRB anti-cancer assay, Breast Cancer; conditions: MDA-MB-435 (Breast Cancer), 48 h
T-47D = test: SRB anti-cancer assay, Breast Cancer; conditions: T-47D (Breast Cancer), 48 h
[2] = read-out: LC50 (the source's name)

N=c1nc(N)c2ncn([C@@H]3O[C@H](COC(=O)c4ccccc4)[C@@H](OC(=O)c4ccccc4)[C@H]3OC(=O)c3ccccc3)c2c(N)n1 [4,8-Diamino-6H-6-imino-1(2′,3′,5′-tri-O-benzoyl-β-D-ribofuranosyl)imidazo[4,5-e][1,3]diazepine]
GI50 [1]: 0.1 to 10 µM
GI50 (K-562): 2.74 µM
TGI (K-562): >100 µM
CC50 (K-562; [2]): > 100 µM
GI50 (A549/ATCC): 6.44 µM
TGI (A549/ATCC): 30 µM
CC50 (A549/ATCC; [2]): > 100 µM
GI50 (NCI-H460): 2.52 µM
TGI (NCI-H460): 8.42 µM
CC50 (NCI-H460; [2]): 34.7 µM
GI50 (KM12): 5.5 µM
LC50 (KM12): 53.6 µM
TGI (KM12): 19.4 µM
GI50 (SF-268): 13.2 µM
TGI (SF-268): 31.3 µM
CC50 (SF-268; [2]): 74.2 µM
GI50 (M14): 1.91 µM
TGI (M14): 3.54 µM
CC50 (M14; [2]): 6.54 µM
GI50 (SK-MEL-2): 2.6 µM
LC50 (SK-MEL-2): 26.2 µM
TGI (SK-MEL-2): 6.87 µM
GI50 (UACC-62): 15.6 µM
TGI (UACC-62): 33.4 µM
CC50 (UACC-62; [2]): 71.5 µM
GI50 (SK-OV-3): 16.3 µM
TGI (SK-OV-3): 30.5 µM
CC50 (SK-OV-3; [2]): 57 µM
GI50 (PC-3): 4.46 µM
TGI (PC-3): 16.6 µM
GI50 (DU-145): 8.79 µM
TGI (DU-145): 21.8 µM
CC50 (DU-145; [2]): 49.1 µM
GI50 (NCI/ADR-RES): 13.9 µM
TGI (NCI/ADR-RES): 31.5 µM
CC50 (NCI/ADR-RES; [2]): 71.4 µM
GI50 (MDA-MB- 231/ATCC): 5 µM
TGI (MDA-MB- 231/ATCC): 22 µM
CC50 (MDA-MB- 231/ATCC; [2]): 61.6 µM
GI50 (MDA-MB-435): 14.9 µM
TGI (MDA-MB-435): 29.8 µM
CC50 (MDA-MB-435; [2]): 59.8 µM
GI50 (T-47D): 5.14 µM
TGI (T-47D): 18.9 µM
CC50 (T-47D; [2]): 48.8 µM
